# Legend:
# [1] = system: C. elegans host defense pathway genes; assay: nanoString expression of 115 immune- and stress-responsive genes; conditions: 100 μM LK molecules, 16 h
# Experimental: The ratio of MIC to EC was determined for each of the 69 compounds.
# Analysis of the expression of 115 immune- and stress-responsive genes using nanoString technology. Download Table S1, XLSX file, 0.02 MB.
# For nanoString-based (nanoString Technologies, Seattle, WA) experiments, 2,000 wild-type, young adult worms were exposed to 100 μM LK molecules or DMSO control in S Basal medium in 6-well plates for 16 h. RNA purification and gene expression analysis were performed according to nanoString guidelines. Two biological replicates were tested for each condition.
# [2] = system: C. elegans exposed to P. aeruginosa strain PA14; assay: P. aeruginosa slow-killing assay (agar); assay type: in vivo, Caenorhabditis elegans; conditions: 50 µM; for Rescue in slow killing on disruption of the PMK-1 MAPK pathway: pmk-1 or atf-7 RNAi; for Survival in slow-killing assay vs DMSO: wild-type young adult worms
# Source text: The finding that each of the compounds activated PMK-1/p38 MAPK targets was of interest, as this pathway is associated with enhanced immunity against multiple bacterial pathogens in agar-based C. elegans assays. Therefore, we tested whether these compounds could promote survival in an agar-based, high-colonization pathogenesis model known as slow killing. Loss of PMK-1 activity substantially compromises survival in the slow-killing assay ([16], [47]). Wild-type, young adult worms were exposed to P. aeruginosa strain PA14 on agar plates impregnated with each of the five compounds. […] To see whether this depended upon the PMK-1 pathway, LK32, LK38, and LK56 were retested in worms where RNAi was used to knock down pmk-1/MAPK or atf-7/ATF7 (a key transcription factor whose activity is modulated by PMK-1 [63, 64]) (Fig. 9; see Table S2 in the supplemental material for TD50 and overall statistical significance).
# FIG 8 Four LK molecules extend C. elegans life span in the slow-killing assay. […] The data shown are from a representative replicate. Each of the three biological replicates was comprised of three plates per condition, with each plate containing ∼60 worms. Statistical significance was calculated using a log-rank test. Worms that left the surface of the plate were excluded from analysis (see Table S2 in the supplemental material for TD50 and exact P values).
# FIG 9 Rescue in slow killing by a subset of LK compounds depends upon the PMK-1/p38 MAPK pathway. Wild-type L4 worms were reared on RNAi targeting pmk-1/p38 MAPK, atf-7/ATF-7, or empty vector and placed onto slow-killing plates containing DMSO or LK32 (A and B), LK38 (C and D), or LK56 (E and F) at 50 µM. Starting at 24 h, worms were scored every 12 h for survival until all worms perished. Each of the three biological replicates was comprised of three plates, each plate contained approximately 50 to 70 worms. Statistical significance was calculated using log-rank test (see Table S2 in the supplemental material for TD50 and exact P values). For vector RNAi, DMSO versus compound, P < 0.001 for LK38, LK56, and LK32.
# Supplementary file : FIG S5 NSY-1 and SEK-1, upstream members of the PMK-1/p38 MAPK pathway, are required for LK38-mediated rescue. Young adult wild-type, nsy-1/MAP3K15(ag3), or sek-1/MAP2K6(km-4) mutants were exposed to P. aeruginosa in the slow-killing assay in the presence of DMSO or LK38. Data for each condition at each time point represent the average value for three plates from one representative replicate (of three replicates total). Each plate contained ∼60 worms. P values were calculated using a log-rank test (see Table S2 in the supplemental material for the TD50 and exact P values). For wild-type DMSO versus LK38 P < 0.001. No statistically significant difference was measured between LK38 and DMSO for either mutant. Download FIG S5, PDF file, 0.1 MB.
# Slow-killing (SK) plates were made as previously reported ([92]). Compounds were added to molten SK agar before pouring plates. After solidifying, 40 µl of PA14 overnight culture was spread on plates before incubating plates at 37°C for 24 h, followed by 25°C for 24 h. 5-fluoro-2′-deoxyuridine (FUDR) (0.1 mg/ml) was dropped on plates 30 min prior to picking worms, to ensure nematode sterility. Fifty to seventy L4-stage, wild-type worms were picked onto plates and scored every 12 h after the first 24 h, until all worms were dead. Three biological replicates were performed.
# [3] = vector RNAi, Fig 9 panels A-B, C, E
smiles,measurement,setting,value
COC(=O)/C=C/C(=O)Nc1ccccc1 [LK32],"B0024.4 expression, induction",[1],2.44 fold
same,"C02B4.2 nhr-17 expression, induction",[1],5.68 fold
same,"C06B3.7 expression, induction",[1],4.23 fold
same,"C07G3.2 irg-1 expression, induction",[1],2.20 fold
same,"C12C8.1 hsp-70 expression, induction",[1],3.77 fold
same,"C15F1.7 sod-1 expression, induction",[1],4.46 fold
same,"C29F7.2 expression, induction",[1],2.80 fold
same,"C31A11.5 oac-6 expression, induction",[1],4.01 fold
same,"C32D5.12 expression, induction",[1],3.70 fold
same,"C32H11.1 expression, induction",[1],1.40 fold
same,"C32H11.3 expression, induction",[1],2.32 fold
same,"C34G6.4 pgp-2 expression, induction",[1],1.90 fold
same,"C37C3.10 expression, induction",[1],4.08 fold
same,"C37H5.8 hsp-6 expression, induction",[1],3.96 fold
same,"C49G7.5 irg-2 expression, induction",[1],4.83 fold
same,"F08F8.5 numr-1 expression, induction",[1],8.48 fold
same,"F08H9.4 expression, induction",[1],1.80 fold
same,"F14F9.3 expression, induction",[1],4.80 fold
same,"F22B5.4 expression, induction",[1],3.08 fold
same,"F22H10.2 expression, induction",[1],3.76 fold
same,"F26A3.4 expression, induction",[1],4.23 fold
same,"F35E8.11 cdr-1 expression, induction",[1],3.13 fold
same,"F35G2.4 phy-2 expression, induction",[1],4.53 fold
same,"F37B12.2 gcs-1 expression, induction",[1],7.02 fold
same,"F43E2.8 hsp-4 expression, induction",[1],2.75 fold
same,"F44E5.5 expression, induction",[1],3.34 fold
same,"F49F1.6 expression, induction",[1],2.28 fold
same,"F49F1.7 expression, induction",[1],2.35 fold
same,"F49H6.13 expression, induction",[1],6.69 fold
same,"F54B8.4 expression, induction",[1],2.74 fold
same,"F55G11.2 expression, induction",[1],3.21 fold
same,"F59A7.1 clec-206 expression, induction",[1],3.26 fold
same,"F59B10.4 expression, induction",[1],3.51 fold
same,"H12D21.1 nspa-1 expression, induction",[1],52.37 fold
same,"H23N18.1 ugt-13 expression, induction",[1],8.50 fold
same,"H23N18.3 ugt-8 expression, induction",[1],18.61 fold
same,"K05B2.4 expression, induction",[1],1.82 fold
same,"K08F4.7 gst-4 expression, induction",[1],18.20 fold
same,"K09A9.1 nipi-3 expression, induction",[1],4.75 fold
same,"K10D11.2 expression, induction",[1],2.89 fold
same,"K10G4.3 expression, induction",[1],2.75 fold
same,"R03D7.6 gst-5 expression, induction",[1],46.52 fold
same,"R08H2.1 dhs-23 expression, induction",[1],2.72 fold
same,"R10E8.3 expression, induction",[1],7.07 fold
same,"T19D12.3 expression, induction",[1],9.28 fold
same,"T19H12.1 ugt-9 expression, induction",[1],14.98 fold
same,"T21E8.1 pgp-6 expression, induction",[1],2.05 fold
same,"T22B7.3 expression, induction",[1],6.13 fold
same,"T24C4.4 expression, induction",[1],3.75 fold
same,"T24E12.5 expression, induction",[1],2.28 fold
same,"T27E4.3 hsp-16.48 expression, induction",[1],5.22 fold
same,"T27E4.8 hsp-16.1 expression, induction",[1],4.29 fold
same,"T27F6.8 expression, induction",[1],5.12 fold
same,"T28C12.4 expression, induction",[1],9.85 fold
same,"W02D9.10 expression, induction",[1],4.35 fold
same,"Y22D7AL.5 hsp-60 expression, induction",[1],4.03 fold
same,"Y38E10A.15 nspe-7 expression, induction",[1],2.18 fold
same,"Y46H3A.2 hsp-16.41 expression, induction",[1],4.09 fold
same,"Y46H3A.3 hsp-16.2 expression, induction",[1],4.04 fold
same,"Y56A3A.33 expression, induction",[1],4.81 fold
same,"Y58A7A.5 expression, induction",[1],8.58 fold
same,"ZC376.7 atfs-1 expression, induction",[1],5.61 fold
same,"ZC443.6 ugt-16 expression, induction",[1],3.20 fold
same,"ZK697.6 gst-21 expression, induction",[1],2.57 fold
same,"TD50, slow killing","[2]; atf-7 RNAi, Fig 9",46.2 h
same,"TD50, slow killing","[2]; pmk-1 RNAi, Fig 9",45.6 h
same,Rescue in slow killing on disruption of the PMK-1 MAPK pathway,[2],retained at least partial ability to rescue
same,"TD50, slow killing",[2]; [3],59.1 h
same,Survival in slow-killing assay vs DMSO,[2],improved survival
O=c1cc(CNc2ccc(Br)cc2)nc2sccn12 [LK56],"B0024.4 expression, induction",[1],2.13 fold
same,"C02B4.2 nhr-17 expression, induction",[1],1.97 fold
same,"C06B3.7 expression, induction",[1],1.14 fold
same,"C07G3.2 irg-1 expression, induction",[1],1.40 fold
same,"C12C8.1 hsp-70 expression, induction",[1],1.04 fold
same,"C15F1.7 sod-1 expression, induction",[1],2.09 fold
same,"C29F7.2 expression, induction",[1],14.61 fold
same,"C31A11.5 oac-6 expression, induction",[1],2.72 fold
same,"C32D5.12 expression, induction",[1],1.17 fold
same,"C32H11.1 expression, induction",[1],8.05 fold
same,"C32H11.3 expression, induction",[1],1.05 fold
same,"C34G6.4 pgp-2 expression, induction",[1],1.72 fold
same,"C37C3.10 expression, induction",[1],3.56 fold
same,"C37H5.8 hsp-6 expression, induction",[1],1.45 fold
same,"C49G7.5 irg-2 expression, induction",[1],2.13 fold
same,"F08F8.5 numr-1 expression, induction",[1],3.14 fold
same,"F08H9.4 expression, induction",[1],1.04 fold
same,"F14F9.3 expression, induction",[1],1.84 fold
same,"F22B5.4 expression, induction",[1],2.10 fold
same,"F22H10.2 expression, induction",[1],1.87 fold
same,"F26A3.4 expression, induction",[1],1.98 fold
same,"F35E8.11 cdr-1 expression, induction",[1],47.99 fold
same,"F35G2.4 phy-2 expression, induction",[1],1.43 fold
same,"F37B12.2 gcs-1 expression, induction",[1],1.20 fold
same,"F43E2.8 hsp-4 expression, induction",[1],1.17 fold
same,"F44E5.5 expression, induction",[1],1.42 fold
same,"F49F1.6 expression, induction",[1],1.76 fold
same,"F49F1.7 expression, induction",[1],4.06 fold
same,"F49H6.13 expression, induction",[1],1.42 fold
same,"F54B8.4 expression, induction",[1],3.28 fold
same,"F55G11.2 expression, induction",[1],2.09 fold
same,"F59A7.1 clec-206 expression, induction",[1],12.55 fold
same,"F59B10.4 expression, induction",[1],1.53 fold
same,"H12D21.1 nspa-1 expression, induction",[1],2.13 fold
same,"H23N18.1 ugt-13 expression, induction",[1],4.36 fold
same,"H23N18.3 ugt-8 expression, induction",[1],20.66 fold
same,"K05B2.4 expression, induction",[1],2.91 fold
same,"K08F4.7 gst-4 expression, induction",[1],1.69 fold
same,"K09A9.1 nipi-3 expression, induction",[1],2.25 fold
same,"K10D11.2 expression, induction",[1],1.72 fold
same,"K10G4.3 expression, induction",[1],1.36 fold
same,"R03D7.6 gst-5 expression, induction",[1],23.60 fold
same,"R08H2.1 dhs-23 expression, induction",[1],182.18 fold
same,"R10E8.3 expression, induction",[1],1.01 fold
same,"T19D12.3 expression, induction",[1],2.00 fold
same,"T19H12.1 ugt-9 expression, induction",[1],6.54 fold
same,"T21E8.1 pgp-6 expression, induction",[1],0.89 fold
same,"T22B7.3 expression, induction",[1],1.38 fold
same,"T24C4.4 expression, induction",[1],1.93 fold
same,"T24E12.5 expression, induction",[1],2.19 fold
same,"T27E4.3 hsp-16.48 expression, induction",[1],1.38 fold
same,"T27E4.8 hsp-16.1 expression, induction",[1],1.30 fold
same,"T27F6.8 expression, induction",[1],2.98 fold
same,"T28C12.4 expression, induction",[1],7.67 fold
same,"W02D9.10 expression, induction",[1],2.27 fold
same,"Y22D7AL.5 hsp-60 expression, induction",[1],1.56 fold
same,"Y38E10A.15 nspe-7 expression, induction",[1],0.87 fold
same,"Y46H3A.2 hsp-16.41 expression, induction",[1],1.11 fold
same,"Y46H3A.3 hsp-16.2 expression, induction",[1],1.21 fold
same,"Y56A3A.33 expression, induction",[1],2.67 fold
same,"Y58A7A.5 expression, induction",[1],1.53 fold
same,"ZC376.7 atfs-1 expression, induction",[1],1.86 fold
same,"ZC443.6 ugt-16 expression, induction",[1],27.68 fold
same,"ZK697.6 gst-21 expression, induction",[1],8.40 fold
same,"TD50, slow killing","[2]; atf-7 RNAi, Fig 9",38.5 h
same,"TD50, slow killing","[2]; pmk-1 RNAi, Fig 9",38.0 h
same,Rescue in slow killing on disruption of the PMK-1 MAPK pathway,[2],retained at least partial ability to rescue
same,"TD50, slow killing",[2]; [3],59.9 h
same,"TD50, slow killing","[2]; vector RNAi, Fig 9 panels D, F",56.1 h
same,"TD50, slow killing","[2]; wild-type worms, Fig 8 (DMSO 58.9)",60.5 h
same,Survival in slow-killing assay vs DMSO,[2],improved survival

# — paper PMC7845594, “Novel Immune Modulators Enhance Caenorhabditis elegans Resistance to Multiple Pathogens” (mSphere, 2021)
